Patent US5627156A, “Polypeptide agonists for human interleukin-8” (University of Nebraska Board of Regents, priority 1994, dated 1997)
Where no end group is shown, it is not given here.

Key:
[1] = tested on: peritoneal cells (PMNs, monocytes/macrophages, lymphocytes); test: In vivo chemotactic activity into the peritoneum after ip injection; set-up: species or system C57BL/6 mice
Protocol: (§1) A stock solution of 5 mg/ml of Analog 1 was prepared using Dulbecco's phosphate buffered saline D-PBS. The solution was made 5× to compensate for the injection of 0.2 ml ip. The mice were dosed at various times with various doses of analog 1. The ip administration was with a volume of 0.2 ml. In addition, excipient control animals were injected.
(§2) The mice used for the study were C57BL/6 females, which were obtained from Jackson Laboratories. The mice used in these studies were at 8-10 weeks of age and weighed 15-18 g. The mice were housed in conventional cages, fed pelleted food and given water ad libitum.
The mice were sacrificed by ether overdose, the ventral skin reflected and the peritoneum lavaged with three 5 ml lavages of calcium-, magnesium-freeHBSS. At one, two, four, eight and 24 hours, following injection, three to five mice and/or control mice were lavaged and the cells collected in 15 ml tubes. The peritoneal cells were then centrifuged and counted. In addition, a differential was done on the peritoneal cells in a cytospin preparation. For the cytospin, 25 μl of bovine albumin (Sigma Lot #70H0183) was first placed in the bottom of the chamber, and 100 μl of cell suspension (100,000 cells) added. It was spun at 1000 rpm for 5 minutes and then left to dry. Next, they were placed in leukostat fixative solution for 5 seconds followed by 45 seconds in Leukostat solution 1 and 45 seconds in Leukostat solution 2 and finally washed in deionized H2 O for 5 seconds and allowed to dry. The slides were analyzed under microscope for differentials.

[2] = tested on: Polymorphonuclear leukocytes (PMNs); test: Neutrophil Ca release by flow cytometry (Fluo-3); format: cell-based, human
Protocol: Polymorphonuclear leukocytes (≥95% neutrophils, PMNs) were isolated from heparinized (10 U/ml) blood collected from healthy volunteers. Erythrocytes were removed by 6% dextran sedimentation for 30 minutes at room temperature, and then the supernatant was subjected to Ficoll (Ficoll-Paque, Pharmacia LKB, Uppsala, Sweden) density gradient centrifugation. PMNs were obtained from the pellet. Contaminated erythrocytes were eliminated by one cycle of hypotonic lysis. After an additional washing step the cells were counted and adjusted to a final concentration of 5×10^6 /ml in RPMI 1640 (Gibco, Grand Island, N.Y.). Fluo-3 Loading--The loading procedure with Fluo-3 (Molecular Probes, Eugene, Oreg.) was carried out with PMNs suspended at a density of 5×10^6 /ml in fresh RPMI 1640 containing 2.0 μM Fluo-3 AM (prediluted in dimethyl sulfoxide; Sigma Chemicals) in polypropylene tubes (Falcon 2063, Becton Dickinson). […]
Measurement of [Ca^2+ ] in Flow Cytometry--Before addition of the stimuli the fluorescence channel of the FAGScan Plus (Becton Dickinson) was adjusted to find the basal fluorescence level of loaded but unstimulated PMNs. The samples were excited by an argon laser at 488 nm and emission was measured at 525 nm (green fluorescence, channel FL1). […] The fluorescence of Fluo-3-loadedcells was measured in arbitrary fluorescence units of mean channel fluorescence (channel FL1). […]

[3] = tested on: peripheral blood cells (PMNs, monocytes, lymphocytes); test: In vivo peripheral blood (PBL) cellularity after ip injection; set-up: species or system C57BL/6 mice; settings: single ip injection
Protocol: as §1, §2
At various times following injection of Analog 1 the mice were bled from retinal orbital plexus with 40 μl removed into heparanized capillary tubes and the blood analyzed using a Serona Baker 9000 Blood analyzer. In addition, blood films were made and differentials undertaken on at least 200 cells/sample.

[4] = Biological activity of the analog compared to analog 1 (test not specified); settings: C-terminally truncated, residues 4 to 17
Protocol: The biological activity of an analog of the invention is determined by comparing the analog with naturally occurring IL-8.

[5] = tested on: receptor sites on neutrophils; settings: cited from earlier work

ELRCQCIKTYSKPFHPK (cysteine pairing not given here) [Analog 1, structural mimic of IL-8 from amino acid residues 4 to 20]
kinetics of the in vivo chemotactic response in the peritoneum ([1]; ip injection of 10 μg, FIG. 7): greatest increase observed was in the number of macrophages and PMNs
primary cell type elicited in the peritoneum ([1]; ip injection, FIG. 3): PMNs
increase in PMN into the peritoneum ([1]; ip injection, FIG. 4): four-fold
increase in monocyte/macrophages into the peritoneum ([1]; ip injection, FIG. 4): two-fold
dose of optimal activity on peritoneal cellularity ([1]; single ip injection, 0.1-500 μg/animal, FIG. 1): 10 μg/animal
neutrophil Ca concentration ([2]; FIG. 10A and B, concentration not given): induced a change in neutrophil Ca concentrations
PBL cellularity ([3]; FIG. 2): significant increase
frequency of PMNs in the peripheral blood ([3]; FIG. 5): increase
absolute number of PMNs and monocytes in the peripheral blood ([3]; FIG. 6): significant increase

Glu-Leu-Arp-Cys-Gln-Cys-Ile-Lys-Thr-Tyr-Ser-Lys-Pro-Phe (ELRCQCIKTYSKPF) [Analog 2, structural mimic of human IL-8 from amino acid residues 4 to 17]
activity compared to analog 1 [4]: slight loss of activity

Interleukin 8 [IL-8]
Kd [5]: 0.2 nM
neutrophil Ca concentration ([2]; 77 amino acid IL-8 at 10^-6 M, FIG. 8B): the majority of neutrophils showed an increase in calcium concentration
